{"source": "patent US20080318892A1", "about": "“METHODS AND FORMULATIONS FOR PROTECTING CELLS, AND FOR TREATING DISEASES AND CONDITIONS BY OPTIMIZING THE INTRACELLULAR CONCENTRATION OF NAD” (priority 2007, published 2008)", "system": "HDAC", "test": "Histone deacetylase (HDAC) assay in SMC lysates with [3H]-acetylated histone H4 peptide", "type": "biochemical, human", "conditions": "HITC6-PBEF SMC lysates, vehicle", "description": "HITC6 SMC's were stably transduced with pQXCIP-PURO or pQXCIP-PBEF-PURO and HDAC activity determined in cell lysates (25 μg of protein), using [^3H]histone H4 peptide as the substrate. The reactions were quenched by acid hydrolysis and catalytically released [^3H]-acetate was extracted in ethyl acetate.\nHistone Deacetylase (HDAC) Assays were employed. Histone H4 peptide (Upstate) was labeled with [^3H]-acetyl Coenzyme A (ICN) using PCAF histone acetylase. Cell lysates were harvested using Passive Lysis Buffer (Promega) and 25 μg of protein was incubated at 37° C. for 6 hours with 50,000 cpm of [^3H]-acetyl histone and 1 mM PMSF in HDAC Assay Buffer (Upstate). Released [^3H]-acetate was extracted with ethyl acetate (31) and counted on a Beckman LS3801 scintillation counter.", "data": [{"substance": "PBEF: 52-55 kD protein, rate-limiting enzyme for NAD+ biosynthesis from nicotinamide; tested by retroviral cDNA overexpression in cells", "values": [{"measurement": "total HDAC activity vs HITC6-Vector SMC's", "value": "significantly greater"}]}]}
